Test results published in patent publication US10709132B2, “Microbicidal composition” (DDP SPECIALTY ELECTRONIC MATERIALAS US, INC., priority 2015, dated 2020).
Read-outs that look alike come from different tables or passages of the source.

Experiments:
Format in all cases: cell-based
[1] = system: Aspergillus brasiliensis ATCC #16404; assay: Synergy test by MIC in 96 well microtiter plates, mold; settings: ATCC16404, 168 h, A. brasiliensis, contact time 7 days, 25° C., potato dextrose broth, read-out: MIC of compound acting alone (CA / CB)
Protocol: (§1) DMO with Pine oil was evaluated for synergy by determining the synergy index (S.I.) of the combination. Incubation temperature for bacteria was 30° C. and for fungi was 25° C. Synergy index was calculated based on minimum inhibitory concentrations (MIC) of two antimicrobial compounds (CA and CB) alone and in combinations (Ca and Cb). The test organisms were gram negative bacteria (Pseudomonas aeruginosa ATCC #15442), gram positive bacteria (Staphylococcus aureus ATCC #6538), and yeast (Candida albicans ATCC #10231) and mold (Aspergillus brasiliensis ATCC #16404). The test was carried out in 96 well microtiter plates. Contact time for the bacteria and yeast was 24 and 48 hours, and contact time for mold was 3 and 7 days. […] SI is calculated as follows: Ca/CA+Cb/CB=Synergy Index (“SI”) Wherein: • CA=concentration of compound A in ppm, acting alone, which produced an end point (MIC of Compound A). • Ca=concentration of compound A in ppm, in the mixture, which produced an end point. • CB=concentration of compound B in ppm, acting alone, which produced an end point (MIC of Compound B). • Cb=concentration of compound B in ppm, in the mixture, which produced an end point. When the sum of Ca/CA and Cb/CB is greater than one, antagonism is indicated. […] [table] [table] [table]

[2] = system: Candida albicans ATCC #10231; assay: Synergy test by MIC in 96 well microtiter plates, yeast; settings: ATCC10231, C. albicans, 25° C., potato dextrose broth, read-out: MIC of compound acting alone (CA / CB)
Protocol: as §1

[3] = system: Staphylococcus aureus ATCC #6538; assay: Synergy test by MIC in 96 well microtiter plates, gram positive bacteria; settings: ATCC6538, S. aureus, 30° C., 10% tryptic soy broth, read-out: MIC of compound acting alone (CA / CB)
Protocol: as §1

- MIC [1]: 500 µg/mL
- MIC ([2]; contact time 24 hrs): 1000 µg/mL
- MIC ([2]; contact time 48 hrs): 1000 µg/mL
- MIC ([3]; contact time 24 hrs): 75 µg/mL
- MIC ([3]; contact time 48 hrs): 75 µg/mL
Structure (SMILES): CC1(C)COCN1 [DMO, 4,4-dimethyloxazolidine]
